Earlier results, collected in patent US20110256545A1, “mRNA expression-based prognostic gene signature for non-small cell lung cancer” (priority 2010, published 2011).
“Also recorded” adds a separate entry of the source.

System: NCI-60 cell lines
Details: the value is the cell line; for Resistant lung cancer cell lines: NCI-60 lung cancer (LC) cell lines classed as resistant to the agent; for Sensitive lung cancer cell lines: NCI-60 lung cancer (LC) cell lines classed as sensitive to the agent

Row | Structure (SMILES) | Resistant lung cancer cell lines | Sensitive lung cancer cell lines
1 | N.N.O=C([O-])C1(C(=O)[O-])CCC1.[Pt+2] [Carboplatin] | LC: EKVX | LC: NCI_H460; also recorded: LC: NCI_H522
2 | N.N.[Cl][Pt][Cl] [Cisplatin] | LC: NCI_H226; also recorded: LC: EKVX | LC: HOP_62; also recorded: LC: NCI_H460
3 | COc1cc([C@@H]2c3cc4c(cc3[C@@H](O[C@@H]3O[C@@H]5CO[C@@H](C)O[C@H]5[C@H](O)[C@H]3O)[C@H]3COC(=O)[C@H]23)OCO4)cc(OC)c1O [Etoposide] | LC: EKVX | LC: HOP_62; also recorded: LC: NIC_H460
4 | CC(=O)O[C@H]1C(=O)[C@@]2(C)[C@H]([C@H](OC(=O)c3ccccc3)[C@]3(O)C[C@H](OC(=O)[C@H](O)[C@@H](NC(=O)c4ccccc4)c4ccccc4)C(C)=C1C3(C)C)[C@]1(OC(C)=O)CO[C@@H]1C[C@@H]2O [Paclitaxel] | LC: HOP_92; also recorded: LC_EKVX | LC: NCI_H460; also recorded: LC: NCI_H522
